In patent US20100184809A1, “Heterocyclic FXR Binding Compounds” (PHENEX PHARMACEUTICALS AG, priority 2006, published 2010):

Target: T1, human FXRalpha ligand binding domain (LBD) (Homo sapiens, UniProt Q96RI1)
T1 construct: made in house; host or cells: E. coli BL21(DE3), vector pDEST15
T1 sequence (Q96RI1 187-472 isoform Q96RI1-2): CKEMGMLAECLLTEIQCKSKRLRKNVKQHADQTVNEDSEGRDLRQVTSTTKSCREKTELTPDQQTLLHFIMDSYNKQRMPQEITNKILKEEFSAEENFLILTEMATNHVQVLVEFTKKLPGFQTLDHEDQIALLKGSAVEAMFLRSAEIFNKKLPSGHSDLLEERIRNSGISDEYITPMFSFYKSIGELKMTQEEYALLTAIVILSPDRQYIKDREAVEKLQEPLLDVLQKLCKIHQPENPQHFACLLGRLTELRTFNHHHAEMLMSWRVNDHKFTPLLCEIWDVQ
Assay: FRET activity assay (ligand mediated cofactor peptide interaction, LANCE)
Assay type: biochemical
Conditions: GST-FXR-LBD / biotinylated SRC-1 peptide (676-700)
Protocol: Determination of a ligand mediated cofactor peptide interaction to quantify ligand binding to the nuclear receptor Farnesoid X Receptor (FXR) was performed as follows:
Preparation of human farnesoid X receptor (FXR) alpha ligand binding domain: The human FXRalpha ligand binding domain (LBD) was expressed in E. coli strain BL21(DE3) as an N-terminally glutathione-[…] (GST) tagged fusion protein. The DNA encoding the FXR ligand binding domain was cloned into vector pDEST15 (Invitrogen). Expression was under control of an IPTG inducible T7 promoter. The amino acid boundaries of the ligand binding domain were amino acids 187-472 of Database entry NM_005123 (RefSeq). Expression and purification of the FXR-LBD: An overnight preculture of a transformed E. coli strain was diluted 1:20 in LB-Ampicillin medium and grown at 30° C. to an optical density of OD600=0.4-0.6. Gene expression was then induced by addition of 0.5 mM IPTG. Cells were incubated an additional 6 h at 30° C., 180 rpm. Cells were collected by centrifugation (7000×g, 7 min, room temperature). Per liter of original cell culture, cells were resuspended in 10 ml lysis buffer (50 mM Glucose, 50 mM Tris pH 7.9, 1 mM EDTA and 4 mg/ml lysozyme) and left on ice for 30 min. Cells were then subjected to sonication and cell debris removed via centrifugation (22000×g, 30 min, 4° C.). Per 10 ml of supernatant 0.5 ml prewashed Glutathione 4B sepharose slurry (Qiagen) was added and the suspension kept slowly rotating for 1 h at 4° C. Glutathione 4B sepharose beads were pelleted by centrifugation (2000 g, 15 sec, 4° C.) and washed twice in wash buffer (25 mM Tris, 50 mM KCl, 4 mM MgCl2 and 1M NaCl). The pellet was resuspended in 3 ml elution buffer per liter of original culture (elution buffer: 20 mM Tris, 60 mM KCl, 5 mM MgCl2 and 80 mM glutathione added immediately prior to use as powder). The suspension was left rotating for 15 min at 4° C., the beads pelleted and eluted again with half the volume of elution buffer than the first time. The eluates were pooled and dialysed overnight in 20 mM Hepes buffer (pH 7.5) containing 60 mM KCl, 5 mM MgCl2 as well as 1 mM dithiothreitol and 10% (v/v) glycerol. The protein was analysed by SDS-Page.
The method measures the ability of putative ligands to modulate the interaction between the purified bacterial expressed FXR ligand binding domain (LBD) and a synthetic biotinylated peptide based on residues 676-700 of SRC-1 (LCD2, 676-700). The sequence of the peptide used was B-[…]-COOH where the N-terminus was biotinylated (B). The ligand binding domain (LBD) of FXR was expressed as fusion protein with GST in BL-21 cells using the vector pDEST15. Cells were lysed by sonication, and the fusion proteins purified over glutathione sepharose (Pharmacia) according to the manufacturers instructions. For screening of compounds for their influence on the FXR-peptide interaction, the Perkin Elmer LANCE technology was applied. This method relies on the binding dependent energy transfer from a donor to an acceptor fluorophor attached to the binding partner of interest. For ease of handling and reduction of background from compound fluorescence LANCE technology makes use of generic fluorophore labels and time resolved detection Assays were done in a final volume of 2 5 μl in a 384 well plate, in a Tris-based buffer (20 mM Tris-HCl pH 7,5; 60 mM KCl, 5 mM MgCl2; 35 ng/μl BSA), containing 20-60 ng/well recombinantly expressed FXR-LBD fused to GST, 200-600 nM N-terminally biotinylated peptide, representing SRC1 aminoacids 676-700, 200 ng/well Streptavidin-xIAPC conjugate(Prozyme) and 6-10 ng/well Eu W1024 antiGST (Perkin Elmer). DMSO content of the samples was kept at 1%. After generation of the assay mix and diluting the potentially FXR modulating ligands, the assay was equilibrated for one hour in the dark at room temperature in FIA-plates black 384 well (Greiner). […]

Row | IC50 | Compound
1 | ≤ 1000 nM | Cc1nc(OCc2c(-c3c(Cl)cccc3Cl)noc2C(C)C)ccc1NC(=O)c1ccc(C(=O)O)cc1 [Example 1, N-{6[3-(2,6-dichloro-phenyl)-5-isopropyl-isoxazol-4-ylmethoxy]-2-methyl-pyridin-3-yl}-terephthalamic acid]
2 | ≤ 1000 nM | Cc1nc(OCc2c(-c3c(Cl)cccc3Cl)noc2C(C)C)ccc1N(C)C(=O)c1ccc(C(=O)O)cc1 [Example 2, 4-((6-((3-(2,6-Dichlorophenyl)-5-isopropylisoxazol-4-yl)methoxy)-2-methylpyridin-3-yl)(methyl)carbamoyl)benzoic acid]
3 | ≤ 1000 nM | Cc1nc(OCc2c(-c3c(Cl)cccc3Cl)noc2C(C)C)ccc1NS(=O)(=O)c1ccc(C(=O)O)cc1 [Example 3, 4-{6-[3-(2,6-Dichloro-phenyl)-5-isopropyl-isoxazol-4-ylmethoxy]-2-methyl-pyridin-3-ylsulfamoyl}-benzoic acid]
4 | 1000 to 10000 nM | COC(=O)c1ccc(C(=O)Nc2ccc(OCc3c(-c4c(Cl)cccc4Cl)noc3C(C)C)nc2C(F)(F)F)cc1 [Example 5, N-{6-[3-(2,6-dichloro-phenyl)-5-isopropyl-isoxazol-4-ylmethoxy]-2-trifluoromethyl-pyridin-3-yl}-terephthalamic acid methyl ester]
5 | 1000 to 10000 nM | CC(C)c1onc(-c2c(Cl)cccc2Cl)c1COc1ccc(NS(=O)(=O)c2ccc(C(=O)O)cc2)c(C(F)(F)F)n1 [Example 8, 4-{6-[3-(2,6-dichloro-phenyl)-5-isopropyl-isoxazol-4-ylmethoxy]-2-trifluoromethyl-pyridin-3-ylsulfamoyl}-benzoic acid]
6 | ≤ 1000 nM | CC(C)c1onc(-c2c(Cl)cccc2Cl)c1COc1ccc(N(C)S(=O)(=O)c2ccc(C(=O)O)cc2)c(C(F)(F)F)n1 [Example 9, 4({6-[3-(2,6-Dichloro-phenyl)-5-isopropyl-isoxazol-4-ylmethoxy]-2-trifluoromethyl-pyridin-3-yl}-methyl-sulfamoyl)-benzoic acid]
7 | ≤ 1000 nM | COc1nc(OCc2c(-c3c(Cl)cccc3Cl)noc2C(C)C)ccc1NC(=O)c1ccc(C(=O)O)cc1 [Example 10, N-{6-[3-(2,6-dichloro-phenyl)-5-isopropyl-isoxazol-4-ylmethoxy]-2-methoxy-pyridin-3-yl}-terephthalamic acid]
8 | 1000 to 10000 nM | COc1nc(OCc2c(-c3c(Cl)cccc3Cl)noc2C(C)C)ccc1N(C)C(=O)c1ccc(C(=O)O)cc1 [Example 11, N-{6-[3-(2,6-dichloro-phenyl)-5-isopropyl-isoxazol-4-ylmethoxy]-2-methoxy-pyridin-3-yl}-N-methyl-terephthalamic acid]
9 | ≤ 1000 nM | COc1nc(OCc2c(-c3c(Cl)cccc3Cl)noc2C(C)C)ccc1NS(=O)(=O)c1ccc(C(=O)O)cc1 [Example 12, 4-{6[3-(2,6-dichloro-phenyl)-5-isopropyl-isoxazol-4-ylmethoxy]-2-methoxy-pyridin-3-ylsulfamoyl}-benzoic acid]
10 | ≤ 1000 nM | COc1nc(OCc2c(-c3c(Cl)cccc3Cl)noc2C(C)C)ccc1N(C)S(=O)(=O)c1ccc(C(=O)O)cc1 [Example 13, 4-({6-[3-(2,6-dichloro-phenyl)-5-isopropyl-isoxazol-4-ylmethoxy]-2-methoxy-pyridin-3-yl}-methyl-sulfamoyl)-benzoic acid]
11 | ≤ 1000 nM | Cc1cc(OCc2c(-c3c(Cl)cccc3Cl)noc2C(C)C)ncc1NC(=O)c1ccc(C(=O)O)cc1 [Example 14]
12 | 1000 to 10000 nM | Cc1onc(-c2c(Cl)cccc2Cl)c1COc1ccc(NC(=O)c2ccc(C(=O)O)cc2)cn1 [Example 16, 4-(6-((3-(2,6-dichlorophenyl)-5-methylisoxazol-4-yl)methoxy)pyridin-3-ylcarbamoyl)benzoic acid]
13 | 1000 to 10000 nM | Cc1onc(-c2c(Cl)cccc2Cl)c1COc1ccc(NS(=O)(=O)c2cccc(C(=O)O)c2)cn1 [Example 17, 3-(N-(6-((3-(2,6-dichlorophenyl)-5-methylisoxazol-4-yl)methoxy)pyridin-3-yl)sulfamoyl)benzoic acid]
14 | 1000 to 10000 nM | Cc1onc(-c2c(Cl)cccc2Cl)c1COc1ccc(NS(=O)(=O)c2ccc(C(=O)O)cc2)cn1 [Example 18, 4-(N-(6-((3-(2,6-dichlorophenyl)-5-methylisoxazol-4-yl)methoxy)pyridin-3-yl)sulfamoyl)benzoic acid]
15 | 1000 to 10000 nM | COC(=O)c1cccc(C(=O)Nc2ccc(OCc3c(-c4c(Cl)cccc4Cl)noc3C(C)C)nc2C(F)(F)F)c1 [Example 20, N-(6-[3-(2,6-Dichloro-phenyl)-5-isopropyl-isoxazol-4-ylmethoxy]-2-trifluoromethyl-pyridin-3-yl)-isophthalamic acid methyl ester]
16 | ≤ 1000 nM | CC(C)c1onc(-c2c(Cl)cccc2Cl)c1COc1ccc(N(C)C(=O)c2cccc(C(=O)O)c2)c(C(F)(F)F)n1 [Example 22, 3-((6-((3-(2,6-Dichlorophenyl)-5-isopropylisoxazol-4-yl)methoxy)-2-(trifluoromethyl)pyridin-3-yl)(methyl)carbamoyl)benzoic acid]
17 | ≤ 1000 nM | CC(C)c1onc(-c2c(Cl)cccc2Cl)c1COc1cnc(N(C)Cc2ccc(C(=O)O)cc2)c(Cl)c1 [Example 31, 4-(((3-Chloro-5-((3-(2,6-dichlorophenyl)-5-isopropylisoxazol-4-yl)methoxy)pyridin-2-yl)(methyl)amino)methyl)benzoic acid]
18 | ≤ 1000 nM | CC(C)c1onc(-c2c(Cl)cccc2Cl)c1COc1ccc(N(C)Cc2ccc(C(=O)OCCO)cc2)c(C(F)(F)F)n1 [Example 33, 2-Hydroxyethyl 4-(((6-((3-(2,6-dichlorophenyl)-5-isopropylisoxazol-4-yl)methoxy)-2-(trifluoromethyl)pyridin-3-yl)(methyl)amino)methyl)benzoate]
19 | ≤ 1000 nM | CC(C)c1onc(-c2c(Cl)cccc2Cl)c1COc1ccc(N(C)Cc2ccc(C(=O)OCC(O)CO)cc2)c(C(F)(F)F)n1 (stereo not drawn) [Example 34, 2,3-Dihydroxypropyl 4-(((6-((3-(2,6-dichlorophenyl)-5-isopropylisoxazol-4-yl)methoxy)-2-(trifluoromethyl)pyridin-3-yl)(methyl)amino)methyl)benzoate]
20 | ≤ 1000 nM | CC(C)c1onc(-c2c(Cl)cccc2Cl)c1COc1ccc(N(C)Cc2ccc(C(=O)NCC(O)CO)cc2)c(C(F)(F)F)n1 (stereo not drawn) [Example 35, 4-(((6-((3-(2,6-Dichlorophenyl)-5-isopropylisoxazol-4-yl)methoxy)-2-(trifluoromethyl)pyridin-3-yl)(methyl)amino)methyl)-N-(2,3-dihydroxypropyl)benzamide]
21 | ≤ 1000 nM | CC(C)c1onc(-c2c(Cl)cccc2Cl)c1COc1ccc(N(C)Cc2ccc(C(=O)NCCO)cc2)c(C(F)(F)F)n1 [Example 36, 4-(((6-((3-(2,6-Dichlorophenyl)-5-isopropylisoxazol-4-yl)methoxy)-2-(trifluoromethyl)pyridin-3-yl)(methyl)amino)methyl)-N-(2-hydroxyethyl)benzamide]
